Source: article PMC9667543, “Discovery of Nanomolar-Affinity Pharmacological Chaperones Stabilizing the Oncogenic p53 Mutant Y220C” (ACS Pharmacology & Translational Science, 2022)
Read-outs that look alike come from different tables or passages of the source.

Key:
[1] = target: T1, p53-Y220C (Homo sapiens, UniProt P04637, M133L/N239Y/N268D/V203A/Y220C); settings: cited from earlier work; for stabilization of p53-Y220C (DSF): in vitro
T1 construct: Stabilized p53-Y220C DBD (residues 94−312) was expressed and purified as previously described; 6xHis (N, cleaved yes); lipoyl domain (N, cleaved yes); TEV protease cleavage site (N, cleaved yes); made in house; host or cells: E. coli Rosetta2 plac I

[2] = target: T1, p53-Y220C; settings: cited from earlier work
[3] = test system: p53-Y220C cancer cell lines HUH-7, BXPC-3, NUGC-3; settings: cited from earlier work
[4] = test system: p53; design: method as in PMID 31633398; settings: in vitro; cited from earlier work
[5] = target: T1, p53-Y220C; assay: Thermal stabilization (ΔTm) by differential scanning fluorimetry (DSF); assay type: binding; settings: 10× SYPRO Orange; for ΔTm at 200 µM: 8 μM protein; for ΔTm (°C) [L] = 200 μM: Table 1, 8 μM protein
Method: Differential Scanning Fluorimetry (DSF)
Protein thermal stabilization was determined using SYPRO orange (Life Technologies) as a dye that increases in fluorescence quantitatively upon binding to hydrophobic protein surfaces exposed upon thermal denaturation. Real-time melt analysis was recorded on a Bio-rad CFX Connect Real-time qPCR system. DSF measurements were performed using 8 μM protein and 10x SYPRO orange in assay buffer (25 mM KPi, 150 mM NaCl, 1 mM TCEP, pH 7.2) at a final DMSO concentration of 5% (v/v). ΔT m values were calculated as ΔT m = T m (protein + compound) − T m (protein). ΔT m values are reported as an average of three independent measurements. […]

[6] = target: T1, p53-Y220C; assay: Binding affinity by isothermal titration calorimetry (ITC); settings: for LE (kcal/mol/NHA): ligand efficiency; for fold reduction in binding affinity compared with 4: versus unsubstituted pyrrole reference 4
Method: Isothermal Titration Calorimetry (ITC)
ITC experiments were conducted using a MicroCal iTC200 calorimeter. For forward titrations, the cell unit contained 25-50 μM protein in freshly dialyzed assay buffer (25 mM KPi, 150 mM NaCl, 1 mM TCEP, pH 7.2) with a final DMSO content of 5% (v/v), and the syringe contained 0.5-5 mM compound […]
the same buffer. Injection steps used were 2 µL (initial injection: 0.5 µL) at a rate of 2 µL/s with 120 s or 240 s spacing, and all experiments were performed at 25-30 °C. Data were analyzed using MicroCal PEAQ-ITC analysis software. […]

[7] = target: T1, p53-Y220C; assay: as above; settings: Table 2; ITC reverse titrations, 4–15 μM ligand, 100–147 μM protein
[8] = test system: NUGC-3 (p53-Y220C); design: method as in PMID 29702446; settings: at 10 μM; cited from earlier work
[9] = test system: p53 target genes PUMA, 9p21, BTG2, FAS, TNF, and TNFRSF10B; design: method as in PMID 29702446; settings: qPCR; cited from earlier work

ΔTm at 200 µM ([5]; Table 1, [L] = 200 μM) [°C]	Kd ([6]; Table 1, ITC, [prot] = 50 μM) [µM]	LE (kcal/mol/NHA) ([6]; Table 1)	melting point	SMILES	other results
–	–	–	–	CCn1c2ccc(CNC)cc2c2ccc(-c3cc(C)cs3)cc21 [compound 1]	thermal shift (ΔTm) to the protein melting temperature ([1]; 250 μM [ligand]): over 3 °C; Kd ([2]; binding to the Y220C pocket): 2 µM; selective cell viability reduction ([3]; HUH-7 and NUGC-3 (p53-Y220C) versus HUH7-F1 (p53-Y220C KO) and NUGC-4 (p53-WT), narrow concentration range): induces selective cell viability reduction; p53 aggregation [4]: reduces p53 aggregation in vitro
–	–	–	–	CCN(CC)c1nc2c(C(=O)O)c(O)c(I)c(-n3cccc3)c2s1 [compound 2, reference compound]	ΔTm at 200 µM ([5]; Table 2, [L] = 200 μM): 2.3 °C; LE (kcal/mol/NHA) ([6]; Table 2): 0.34 kcal/mol/NHA; stabilization of p53-Y220C (DSF) [1]: stabilize p53-Y220C in vitro in a concentration-dependent manner; Kd [7]: 1.2 µM
–	–	–	–	CCNC(=O)c1c(O)c(I)c(-n2cccc2)c2sc(N(CC)CC)nc12 [compound 3]	stabilization of p53-Y220C (DSF) [1]: stabilize p53-Y220C in vitro in a concentration-dependent manner; Kd ([2]; literature value, ITC): 4 µM; NUGC-3 viability [8]: < 10%; selective cell viability reduction ([3]; HUH-7, BXPC-3, NUGC-3 versus NUGC-4, SW1088, WI38, HUH-7 p53-Y220C KO): induces selective cell viability reduction; transcription of p53 target genes [9]: enhanced and selective transcription of p53 target genes
1.8	22	0.37	199 to 200 °C (dec.)	O=C(O)c1cc(I)c(-n2cccc2)c(I)c1O [compound 4]	–
–	–	–	–	CN(C)Cc1ccc2c(c1)c1ccccc1n2CC(F)(F)F [compound 6]	Kd ([2]; supplementary CSV, previously reported compounds, no reference printed in the file): 37 µM
0.7	–	–	241 °C (dec.)	O=C(O)c1cc(I)c(-n2cccn2)c(I)c1O [compound 17]	–
1	–	–	238 °C (dec.)	O=C(O)c1cc(I)c(-n2ccnc2)c(I)c1O [compound 18]	–
-0.3	–	–	183 to 184 °C (dec.)	O=C(O)c1cc(I)c(-n2ccc3ccccc32)c(I)c1O [compound 19]	ΔTm (°C) [L] = 200 μM [5]: induced virtually no stabilization
1.5	38	0.33	–	O=C(O)c1cc(I)c(-n2ccc(Cl)c2)c(I)c1O [compound 20]	–
1.9	15	0.37	270 to 271 °C (dec.)	O=C(O)c1cc(I)c(-n2ccc(F)c2)c(I)c1O [compound 21]	–
1.9	25	0.33	217 to 218 °C (dec.)	O=C(O)c1cc(I)c(-n2cc(F)c(F)c2)c(I)c1O [compound 22]	–
0.5	100	0.26	–	O=C(O)c1cc(I)c(-n2ccc(C(F)(F)F)c2)c(I)c1O [compound 23]	fold reduction in binding affinity compared with 4 [6]: approximately 5 fold
0.3	–	–	–	O=C(O)c1cc(I)c(OCC(F)(F)F)c(I)c1O [compound 24]	–
1.5	200	0.28	–	Cc1cccn1-c1c(I)cc(C(=O)O)c(O)c1I [compound 43]	–
1.5	160	0.29	–	Cc1ccn(-c2c(I)cc(C(=O)O)c(O)c2I)c1 [compound 44]	–
1.1	77	0.30	215 °C (dec.)	Cc1ccc(C)n1-c1c(I)cc(C(=O)O)c(O)c1I [compound 45]	fold reduction in binding affinity compared with 4 [6]: 3 fold
–	–	–	235 to 236 °C (dec.)	CC(=O)c1ccn(-c2c(I)cc(C(=O)O)c(O)c2I)c1 [compound 46]	–
0.5	–	–	–	CCc1ccn(-c2c(I)cc(C(=O)O)c(O)c2I)c1 [compound 47]	ΔTm (°C) [L] = 200 μM [5]: induced virtually no stabilization
1.5	120	0.38	197 to 198 °C (dec.)	COc1c(I)cc(C(=O)O)c(O)c1I [compound 62]	–
1.5	86	0.37	194 to 195 °C (dec.)	CCOc1c(I)cc(C(=O)O)c(O)c1I [compound 63]	–
1.1	100	0.34	–	CCCOc1c(I)cc(C(=O)O)c(O)c1I [compound 64]	–
0.5	–	–	182 to 183 °C (dec.)	O=C(O)c1cc(I)c(OCCC(F)(F)F)c(I)c1O [compound 65]	–
1.5	–	–	147 °C (dec.)	CCNc1ccc(C(=O)O)c(O)c1I [compound 67]	–
0.3	–	–	146 °C (dec.)	O=C(O)c1cc(I)c(N2CCCC2)c(I)c1O [compound 70]	ΔTm (°C) [L] = 200 μM [5]: did not exhibit measurable binding nor thermal stabilization; Kd (μM) ([6]; Table 1, ITC, [prot] = 50 μM): did not exhibit measurable binding nor thermal stabilization
0.3	–	–	–	Cc1c(I)cc(C(=O)O)c(O)c1I [compound 74]	–
1.5	26	0.45	188 to 189 °C (dec.)	CCc1c(I)cc(C(=O)O)c(O)c1I [compound 75]	–
0.9	40	0.40	–	CCCc1c(I)cc(C(=O)O)c(O)c1I [compound 76]	–
–	–	–	–	CCN(CC)c1nc2c(C(=O)O)c(O)c(I)c(-n3ccc(F)c3)c2s1 [compound 87]	ΔTm at 200 µM ([5]; Table 2, [L] = 200 μM): 2.7 °C; LE (kcal/mol/NHA) ([6]; Table 2): 0.35 kcal/mol/NHA; fold improvement in affinity compared with parent 2 ([6]; versus parent MB710 (2)): approximately 4 fold; Kd [7]: 0.32 µM
–	–	–	216 to 217 °C	CCN(CC)c1nc2c(C(=O)O)c(O)c(I)c(-n3cc(F)c(F)c3)c2s1 [compound 88]	ΔTm at 200 µM ([5]; Table 2, [L] = 200 μM): 1.8 °C; LE (kcal/mol/NHA) ([6]; Table 2): 0.34 kcal/mol/NHA; Kd [7]: 0.39 µM
–	–	–	–	CCN(CC)c1nc2c(C(=O)O)c(O)c(I)c(-n3ccc(Cl)c3)c2s1 [compound 89]	ΔTm at 200 µM ([5]; Table 2, [L] = 200 μM): 2 °C; LE (kcal/mol/NHA) ([6]; Table 2): 0.31 kcal/mol/NHA; fold weaker binding affinity compared with MB710 (2) ([6]; versus parent 2): ca. 2 fold; Kd [7]: 1.9 µM
